| SMILES | melting point [°C] |
| --- | --- |
| Cc1cc(C(F)(F)F)c2[nH]c3c(c2c1)CNCC3.Cl | 338 to 342 |
| COc1cc(C(F)(F)F)c2[nH]c3c(c2c1)CNCC3 [Example 23, 8-Methoxy-6-(trifluoromethyl)-2,3,4,5-tetrahydro-1H-pyrido [4,3-b]indole] | 140 to 144 |
